Read-outs that look alike come from different tables or passages of the source.
Assays:
[1] = tested on: breast tumor cells (MDA-435); test: MTT assay, 24 hour pre-exposure to roscovitine followed by 24 hour exposure to gemcitabine; format: cell-based; settings: 24 h roscovitine then 24 h gemcitabine
[2] = tested on: human prostrate tumor cells; settings: concurrent exposure
Protocol: The MTT assay is a spectrophotometric assay based on the ability of viable cells to convert MTT to formazan. Cell concentrations were estimated by measuring absorbance at test wavelength of 570 nm and a reference wavelength of 630 nm. An automated procedure was utilized to determine the IC50 value (concentration of drug which inhibits cell growth by 50% of the control) of all agents used in these studies.
After the initial IC50 analysis was complete, the combinations were then tested. For the combination studies, the concentration (expressed as a percent of the individual agent's IC50) schema used to characterise the type of interaction is shown below:
If the majority of (≧3 of 5) of the values are statistically above or below the line (endpoints) then antagonism or synergy is described, respectively. Otherwise, the pattern is more consistent with an additive interaction.

[3] = % IC50 100/0: roscovitine 9.00 ug/ml, gemcitabine 0
[4] = % IC50 100/0: roscovitine 6.75 ug/ml, gemcitabine 0
[5] = % IC50 0/100: roscovitine 0, gemcitabine 15.00 ng/ml
[6] = % IC50 0/100: roscovitine 0, gemcitabine 11.25 ng/ml

Row | Structure (SMILES) | % Abs [1, 3] [%] | % Response [1, 3] [%] | % Abs [2, 4] [%] | % Response [2, 4] [%] | % Abs [1, 5] [%] | % Response [1, 5] [%] | % Abs [2, 6] [%] | % Response [2, 6] [%]
1 | CC[C@H](CO)Nc1nc(NCc2ccccc2)c2ncn(C(C)C)c2n1 [Roscovitine, 6-benzylamino-2-[(R)-1-ethyl-2-hydroxyethylamino]-9-isopropylpurine] | 64.5 | 35.5 | 83.3 | 16.7 | – | – | – | –
2 | Nc1ccn([C@@H]2O[C@H](CO)[C@@H](O)C2(F)F)c(=O)n1 [Gemc., 2′-deoxy-2′,2′-difluorocytidine] | – | – | – | – | 85.0 | 15.0 | 93.1 | 6.9
